Assays:
RARγ = molecular target: T1, RARγ (Homo sapiens, UniProt P13631); experiment: RAR binding, RARγ; settings: Kd from IC50 by Cheng-Prussof equation
T1 sequence (P13631 1-454): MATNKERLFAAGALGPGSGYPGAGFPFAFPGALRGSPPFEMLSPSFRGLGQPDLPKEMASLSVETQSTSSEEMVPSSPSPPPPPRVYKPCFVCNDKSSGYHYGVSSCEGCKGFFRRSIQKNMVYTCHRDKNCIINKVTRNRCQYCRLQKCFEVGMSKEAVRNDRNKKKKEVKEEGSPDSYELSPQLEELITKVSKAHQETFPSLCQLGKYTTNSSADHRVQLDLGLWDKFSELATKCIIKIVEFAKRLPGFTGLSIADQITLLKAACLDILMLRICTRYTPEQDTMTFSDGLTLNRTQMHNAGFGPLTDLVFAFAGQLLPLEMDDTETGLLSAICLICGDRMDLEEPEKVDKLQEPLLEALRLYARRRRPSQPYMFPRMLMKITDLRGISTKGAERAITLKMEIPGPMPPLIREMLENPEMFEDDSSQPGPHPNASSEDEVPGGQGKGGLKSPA
Experimental: (§1) Non-specific binding was defined as that binding remaining in the presence of 500 nM of the appropriate unlabelled compound. At the end of the incubation period, bound from free ligand were separated. The amount of bound tritiated retinoids was determined by liquid scintillation counting of an aliquot (700 μL) of the supernatant fluid or the hydroxylapatite pellet.
(§2) After correcting for non-specific binding, IC50 values were determined. […] The IC50 value was determined graphically from a log-logit plot of the data. The Kd values were determined by application of the Cheng-Prussof equation to the IC50 values, the labeled ligand concentration and the Kd of the labeled ligand.

RARβ = molecular target: T2, RARβ (Homo sapiens, UniProt P10826); experiment: RAR binding, RARβ; settings: Kd from IC50 by Cheng-Prussof equation
T2 sequence (P10826 1-448 isoform P10826-2): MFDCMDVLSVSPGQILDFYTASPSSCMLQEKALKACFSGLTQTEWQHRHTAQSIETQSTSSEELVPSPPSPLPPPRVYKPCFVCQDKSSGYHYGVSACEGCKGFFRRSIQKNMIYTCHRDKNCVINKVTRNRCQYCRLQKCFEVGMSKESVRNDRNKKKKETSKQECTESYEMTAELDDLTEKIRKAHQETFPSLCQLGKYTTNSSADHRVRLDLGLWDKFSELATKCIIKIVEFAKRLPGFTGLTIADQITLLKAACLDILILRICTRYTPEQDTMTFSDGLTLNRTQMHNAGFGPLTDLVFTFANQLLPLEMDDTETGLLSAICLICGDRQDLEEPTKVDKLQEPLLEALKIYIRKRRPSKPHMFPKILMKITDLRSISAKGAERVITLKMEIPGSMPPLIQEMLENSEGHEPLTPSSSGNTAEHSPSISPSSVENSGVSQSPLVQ
Experimental: as §1, §2

RARα = molecular target: T3, RARα (Homo sapiens, UniProt P10276); experiment: RAR binding, RARα; settings: Kd from IC50 by Cheng-Prussof equation
T3 sequence (P10276 1-462): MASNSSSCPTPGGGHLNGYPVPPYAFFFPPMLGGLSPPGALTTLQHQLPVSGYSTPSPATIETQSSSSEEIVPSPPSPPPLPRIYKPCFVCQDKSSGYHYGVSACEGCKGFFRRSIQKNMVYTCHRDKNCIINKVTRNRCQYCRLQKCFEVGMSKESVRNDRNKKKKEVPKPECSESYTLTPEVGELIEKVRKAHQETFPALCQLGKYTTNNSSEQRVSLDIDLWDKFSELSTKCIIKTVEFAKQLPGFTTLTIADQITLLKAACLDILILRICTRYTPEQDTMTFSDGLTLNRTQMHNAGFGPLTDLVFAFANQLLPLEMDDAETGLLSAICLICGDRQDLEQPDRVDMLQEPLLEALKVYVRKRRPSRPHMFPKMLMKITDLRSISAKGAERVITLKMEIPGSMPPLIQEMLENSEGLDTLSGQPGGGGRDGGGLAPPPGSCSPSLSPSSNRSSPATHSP
Experimental: as §1, §2

RARs = experiment: co-transfection assay, activity on RARs (overall statement); type: cell-based, human; settings: comparison compound
Experimental: Utilizing the "cis-trans" or "co-transfection" assay described by Evans et al., Science, 240:889-95 (May 13, 1988), the disclosure of which is herein incorporated by reference, the RAR antagonist compounds of the present invention were tested and found to have strong, specific activity as antagonists of RARs in the presence of RAR agonists. This assay is described in further detail in U.S. Pat. Nos. 4,981,784 and 5,071,773, the disclosures of which are incorporated herein by reference.
In the co-transfection assay, a cloned cDNA for an IR (e.g., human RARα:, RARβ, RXRγ) under the control of a constitutive promoter (e.g., the SV 40 promoter) is introduced by transfection (a procedure to induce cells to take up foreign genes) into a background cell substantially devoid of endogenous IRs. This introduced gene directs the recipient cells to make the IR protein of interest. A second gene is also introduced (co-transfected) into the same cells in conjunction with the IR gene. […]
The co-transfection assay can detect small molecule agonists or antagonists of target IRs. […] This activity can be conveniently measured, e.g., by increasing luciferase production, which reflects compound-dependent, IR-mediated increases in reporter transcription. […]

Kd (RARγ): 0.5 nM
Kd (RARβ): 0.4 nM
Kd (RARα): 1 nM
SMILES: COc1c(C(C)(C)C)cc(/C(C)=C/C=C/C(C)=C/C(=O)O)cc1C(C)(C)C [A, reference compound]
type of activity on RAR (in words) (RARs): displays only activity as an RAR? agonist

Reference: patent US5998654A, “Retinoic acid receptor antagonist compounds and methods” (Ligand Pharmaceuticals Incorporated, priority 1997, dated 1999)
